Laboratory results: patent US8507518B2, “Method of treating mantle cell lymphoma” (Mayo Foundation for Medical Education and Research, priority 2003, dated 2013)

Tests used:
mantle cell lymphoma [1] = test: Phase II trial of single-agent CCI-779, 250 mg IV weekly, in relapsed mantle cell lymphoma (NCCTG); type: in vivo, human
Procedure: The ability of a CCI-779 to treat or inhibit mantle cell lymphoma was evaluated in a clinical trial. Briefly, 18 patients (mean age 72 years, range 38-89 years) were treated with an intravenous dose of 250 mg CCI-779 on days 1, 8, 15, and 22 of a 4 week treatment cycle, for up to a maximum of 12 cycles. Of these patients, 15 were stage IV, 2 were stage III, and 1 was stage II. […] Only 3 patients progressed before the end of the cycle. Based on the results obtained in this clinical trial, CCI-779 is useful in the treatment or inhibition of mantle cell lymphoma.
This study was conducted through the North Central Cancer Treatment Group (NCCTG) cooperative group. Patients were eligible for this trial if they had previously received therapy and had relapsed. There was no limit on the number of prior therapies. All histologies were confirmed to be mantle cell lymphoma by central pathology review. Cyclin-D1 positivity was required by immunohistochemistry or t(11;14) detected by FISH. Patients were required to have measurable disease with a lymph node or tumor mass≧2 cm or malignant lymphocytosis with an ALC≧5,000; a life expectancy of ≧3 months, ECOG performance status of 0, 1, or 2; absolute neutrophil count (ANC)≧1,000; platelets≧75,000; hemoglobin≧8 g/dL; serum creatinine≦2× the upper limit of normal (UNL); serum bilirubin≦1.5 UNL; serum cholesterol≦350 mg/dL; and triglycerides≦400 mg/dL. Patients could not have known central nervous system involvement or HIV infection.
(§1) Patients were treated with a flat dose of 250 mg of CCI-779 diluted in 250 mL of normal saline and delivered IV over 30 minutes. Patients were pretreated with diphenhydramine 25-50 mg IV. Treatment was weekly and a cycle was considered 4 weeks. A complete blood count was performed each week and a full dose delivered if the platelet count was ≧50,000 and the ANC≧1000 and there was no grade 3 non-hematologic toxicity (using the NCI Common Toxicity Criteria version 2). […] Patients were not to receive prophylactic white blood cell growth factors to maintain dosing but could receive them at time of neutropenia at physician discretion. Erythropoietin could be used.
Patients were restaged after 1, 3, and 6 cycles and the response assessed as per the international workshop criteria. [B. D. Cheson, et al., “Report of an International Workshop to Standardize Response Criteria for Non-Hodgkin's Lymphomas”, Journal of Clinical Oncology, Vol 17, Issue 4 (April), 1999: 1244]. Patients who progressed anytime or those patients with stable disease after 6 cycles went off study.
A single stage phase II study with an interim analysis was conducted to assess the proportion of previously treated mantle cell lymphoma patients who achieved a PR or better after treatment with CCI-779. This trial was designed to test the null hypothesis that the true response rate was at most 0.05. The smallest response rate that would indicate that this regimen was worth further study in this patient population was 0.20. The design was generated based on the parameters and assumptions of a two-stage Simon MinMax™ design, but where accrual was not suspended for the interim analysis. This study design required a maximum of 32 evaluable patients, where the interim analysis was performed after 18 patients had been accrued and followed for at least 24 weeks. An additional 3 patients were accrued to this cohort (for a maximum of 35 patients overall) to account for the possibilities of ineligibility, withdrawal from study prior to drug administration, or major violations. However, only the first 32 evaluable patients were used to evaluate the decision criteria for this design. At least one response in the first 18 evaluable patients needed to be observed in the interim analysis to continue accrual. At the time of the final analyses, a total of four or more responses were required to indicate that this regimen warrants further evaluation in this patient population. […]

[2] = Safety and tolerability in the phase II trial of CCI-779 250 mg IV weekly; type: in vivo, human
Procedure: as §1
All 35 patients were included in the analysis of safety and tolerability. During the 30 minute infusion, CCI-779 was well-tolerated and there were no significant toxicities that occurred. Thrombocytopenia was the cause of most dose reductions and was rapidly reversible with drug delays of typically only one week. Only three patients required platelet transfusions, and four patients required red blood cell transfusions. Thirteen patients experienced grade 3 infections without concomitant neutropenia; two patients had febrile neutropenia and three had infection (grade 3) with neutropenia. […] The conclusion was that this was idiopathic Bell's palsy and indeed it eventually resolved. A possible relationship to CCI-779 could not be established nor eliminated. The patient who experienced blurred vision was diagnosed with retinitis due to reactivation of cytomegalovirus (CMV) infection.

mantle cell lymphoma [3] = test: Phase II study of low dose single-agent CCI-779, 25 mg/week, in relapsed mantle cell lymphoma; type: in vivo, human
Procedure: Eleven patients (4 refractory, […], ranging from 55 to 85 years old) with MCL were enrolled in a Phase II study of CCI-779 and were treated as described in Example 1 above, with the exception that they received a 10-fold lower dose than in Example 1, i.e., 25 mg/week. Eight patients (73%) were in stage 4, two (18%) in stage 3, and 4 (36%) had ≧2 extranodal sites. Patients had received a median of 3 prior therapies (range, 1-7) and 3 were refractory to their last treatment.

[4] = Stability of CCI-779 in parenteral cosolvent formulation with antioxidant/chelating agent; type: physicochemical; settings: citric acid at a concentration of less than 0.01% w/v
From the text: In this embodiment, the stability of a CCI-779 in parenterally acceptable alcoholic cosolvents is enhanced by addition of an antioxidant to the formulation. Acceptable antioxidants include, but are not limited to, citric acid, d,l-α-tocopherol, BHA, BHT, monothioglycerol, ascorbic acid, propyl gallate, and mixtures thereof. Generally, the parenteral formulations useful in this embodiment of the invention will contain an antioxidant component(s) in a concentration ranging from 0.001% to 1% w/v, or 0.01% to 0.5% w/v, of the cosolvent concentrate, although lower or higher concentrations may be desired. Of the antioxidants, d,l-α-tocopherol is particularly desirable and is used at a concentration of 0.01 to 0.1% w/v with a preferred concentration of 0.075% w/v of the cosolvent concentrate.
Examples of such chelating agents include, e.g., citric acid, acetic acid, and ascorbic acid (which may function as both a classic antioxidant and a chelating agent in the present formulations). Other chelating agents include such materials as are capable of binding metal ions in solution, such as ethylene diamine tetra acetic acid (EDTA), its salts, or amino acids such as glycine are capable of enhancing the stability of a CCI-779. […] Optimal concentrations for the selected antioxidant(s) can be readily determined by one of skill in the art, based upon the information provided herein.

[5] = overall, median follow-up 11 months

CO[C@H]1C[C@@H]2CC[C@@H](C)[C@@](O)(O2)C(=O)C(=O)N2CCCC[C@H]2C(=O)O[C@H]([C@H](C)C[C@@H]2CC[C@@H](OC(=O)C(C)(CO)CO)[C@H](OC)C2)CC(=O)[C@H](C)/C=C(\C)[C@@H](O)[C@@H](OC)C(=O)[C@H](C)C[C@H](C)/C=C/C=C/C=C/1C [CCI-779, rapamycin 42-ester with 3-hydroxy-2-(hydroxymethyl)-2-methylpropionic acid]
overall response rate (ORR) (mantle cell lymphoma [1]; 13/34 patients, 250 mg IV weekly, 90% CI 24%-54%): 38% | median duration of response (mantle cell lymphoma [1]; 13 responders, 95% CI 4-13.2 months): 5.7 months | overall response rate (mantle cell lymphoma [1]; 18 patients, 250 mg IV days 1, 8, 15, 22 of 4 week cycle, 95% CI 24%-68%): 44.4% | patients progressed before the end of the cycle (mantle cell lymphoma [1]; 18 patients, 250 mg IV weekly): 3 patients | patients with complete response (CR) (mantle cell lymphoma [1]; 18 patients, 250 mg IV weekly): One | patients with partial response (PR) (mantle cell lymphoma [1]; 18 patients, 250 mg IV weekly): 7 patients | number of CR (mantle cell lymphoma [1]; 34 patients, 250 mg IV weekly): 1 | number of PRs (mantle cell lymphoma [1]; 34 patients, 250 mg IV weekly): 12 | median time to progression (mantle cell lymphoma [1]; 95% CI 3.8-9.4 months): 6.2 months | median overall survival (mantle cell lymphoma [1]; 95% CI 6.7 months to not yet reached): 12 months | responses after 4 months evaluation (mantle cell lymphoma [1]; of 13 responders): 1 | responses after 8 months evaluation (mantle cell lymphoma [1]; of 13 responders): 1 | responses after the first cycle evaluation (mantle cell lymphoma [1]; of 13 responders): Eight | responses documented after 3 cycles (mantle cell lymphoma [1]; of 13 responders): 3 | patients who have died (mantle cell lymphoma [1]; [5]): 22 patients | patients with disease progression (mantle cell lymphoma [1]; [5]): 29 patients | median time to response (mantle cell lymphoma [1]; range 1-8): 1 month | anti-tumor activity in relapsed MCL (mantle cell lymphoma [1]; single agent): substantial anti-tumor activity | adverse event, all grades: AST elevations ([2]; 35 patients): 43% | adverse event, all grades: abnormal taste ([2]; 35 patients): 43% | adverse event, all grades: anemia ([2]; 35 patients): 66% | adverse event, all grades: fatigue ([2]; 35 patients): 66% | adverse event, all grades: hypercholesterolemia ([2]; 35 patients): 40% | adverse event, all grades: hyperglycemia ([2]; 35 patients): 91% | adverse event, all grades: increased triglycerides ([2]; 35 patients): 77% | adverse event, all grades: infection without concomitant neutropenia ([2]; 35 patients): 63% | adverse event, all grades: loss of appetite ([2]; 35 patients): 40% | adverse event, all grades: mucositis ([2]; 35 patients): 71% | adverse event, all grades: nausea ([2]; 35 patients): 49% | adverse event, all grades: neutropenia ([2]; 35 patients): 77% | adverse event, all grades: rash ([2]; 35 patients): 51% | adverse event, all grades: sensory neurophathy ([2]; 35 patients): 37% | adverse event, all grades: thrombocytopenia ([2]; 35 patients): 100% | adverse event, all grades: weight loss ([2]; 35 patients): 46% | grade 5 events (deaths on treatment) ([2]; 35 patients): No grade 5 events | patients requiring platelet transfusions ([2]; 35 patients): three | patients requiring red blood cell transfusions ([2]; 35 patients): four | patients with febrile neutropenia ([2]; 35 patients): two | patients with grade 3 infections without concomitant neutropenia ([2]; 35 patients): Thirteen | patients with infection (grade 3) with neutropenia ([2]; 35 patients): three | tolerability during the 30 minute infusion ([2]; 35 patients): well-tolerated | median time to discontinuation of treatment ([2]; 95% CI 3-6.2 months): 3.7 months | patients who went off treatment due to adverse reactions ([2]; of 28 patients who discontinued treatment): 7 | dose reductions necessary ([2]; starting dose 250 mg weekly): all but 4 patients | overall response rate (mantle cell lymphoma [3]; 7/11 patients): 64% | number of PRs (mantle cell lymphoma [3]; 11 patients): 7 | effect of citric acid on stability of CCI-779 [4]: enhanced the stability
